{
  "source": "paper PMC5218480",
  "about": "(PLoS ONE, 2017)",
  "tested_on": "MV-4-11 cells",
  "experiment": "Gene expression microarray analysis (Affymetrix PrimeView) and GSEA",
  "assay_type": "cell-based, human",
  "design": "RFU PODN (11730768_x_at) / Fold change /veh PODN (11730768_x_at) / RFU LINC00158 (11744669_a_at) / Fold change /veh LINC00158 (11744669_a_at) / RFU DUSP10 (11751237_a_at) / Fold change /veh DUSP10 (11751237_a_at) / RFU ID3 (11757404_x_at) / Fold change /veh ID3 (11757404_x_at) / RFU PLEKHG5 (11737974_s_at) / Fold change /veh PLEKHG5 (11737974_s_at) / RFU LRRC4B (11730491_at) / Fold change /veh LRRC4B (11730491_at) / RFU GIMAP4 (11747438_a_at) / Fold change /veh GIMAP4 (11747438_a_at) / RFU KRT8 (11758183_x_at) / Fold change /veh KRT8 (11758183_x_at) / RFU CNN1 (11734310_a_at) / Fold change /veh CNN1 (11734310_a_at) / RFU VPS37D (11726825_at) / Fold change /veh VPS37D (11726825_at) / RFU C10orf10 (11716522_x_at) / Fold change /veh C10orf10 (11716522_x_at) / RFU KIR2DL2 /// KIR2DL4 /// KIR2DL5A /// KIR2DL5B /// KIR2DS1 /// KIR2DS2 /// KIR2DS3 /// KIR2DS4 /// KIR3DL3 /// KIR3DL3 /// KIR3DS1 (11738374_at) / Fold change /veh KIR2DL2 /// KIR2DL4 /// KIR2DL5A /// KIR2DL5B /// KIR2DS1 /// KIR2DS2 /// KIR2DS3 /// KIR2DS4 /// KIR3DL3 /// KIR3DL3 /// KIR3DS1 (11738374_at) / RFU C1QL1 (11718748_at) / Fold change /veh C1QL1 (11718748_at) / RFU TMPRSS4 (11747572_a_at) / Fold change /veh TMPRSS4 (11747572_a_at) / RFU HAMP (11756126_x_at) / Fold change /veh HAMP (11756126_x_at) / RFU RNFT2 (11725882_a_at) / Fold change /veh RNFT2 (11725882_a_at) / RFU NR4A2 (11747474_a_at) / Fold change /veh NR4A2 (11747474_a_at) / RFU ABCC12 (11746883_a_at) / Fold change /veh ABCC12 (11746883_a_at) / RFU TMEM136 (11760407_x_at) / Fold change /veh TMEM136 (11760407_x_at) / RFU CLDN22 /// WWC2 (11732394_at) / Fold change /veh CLDN22 /// WWC2 (11732394_at) / RFU HLA-DPB1 (11760878_x_at) / Fold change /veh HLA-DPB1 (11760878_x_at) / RFU SPINT1 (11716480_a_at) / Fold change /veh SPINT1 (11716480_a_at) / RFU GAP43 (11754022_s_at) / Fold change /veh GAP43 (11754022_s_at) / RFU A4GNT (11735810_at) / Fold change /veh A4GNT (11735810_at) / RFU PRB3 (11715151_x_at) / Fold change /veh PRB3 (11715151_x_at) / RFU TUBB4B (11761932_at) / Fold change /veh TUBB4B (11761932_at) / RFU CAPN14 (11732068_a_at) / Fold change /veh CAPN14 (11732068_a_at) / RFU TMCC2 (11721928_a_at) / Fold change /veh TMCC2 (11721928_a_at) / RFU IRGQ (11745062_a_at) / Fold change /veh IRGQ (11745062_a_at) / RFU FAM174B (11720279_a_at) / Fold change /veh FAM174B (11720279_a_at) / RFU TMPRSS4 (11748680_a_at) / Fold change /veh TMPRSS4 (11748680_a_at) / RFU FAM212B (11763350_a_at) / Fold change /veh FAM212B (11763350_a_at) / RFU PLEKHG5 (11743358_a_at) / Fold change /veh PLEKHG5 (11743358_a_at) / RFU ZSCAN30 (11745921_a_at) / Fold change /veh ZSCAN30 (11745921_a_at) / RFU CMKLR1 (11741424_a_at) / Fold change /veh CMKLR1 (11741424_a_at) / RFU LOC101060620 /// MAPK8IP1 (11723275_at) / Fold change /veh LOC101060620 /// MAPK8IP1 (11723275_at) / RFU SPTSSB (11747773_x_at) / Fold change /veh SPTSSB (11747773_x_at) / RFU PRSS12 (11739890_at) / Fold change /veh PRSS12 (11739890_at) / RFU BIN1 (11741810_x_at) / Fold change /veh BIN1 (11741810_x_at) / RFU WNT11 (11732464_a_at) / Fold change /veh WNT11 (11732464_a_at) / RFU C10orf10 (11716521_a_at) / Fold change /veh C10orf10 (11716521_a_at) / RFU C5orf56 (11738089_at) / Fold change /veh C5orf56 (11738089_at) / RFU CYB561 (11721691_x_at) / Fold change /veh CYB561 (11721691_x_at) / RFU ANKRD19P (11752326_a_at) / Fold change /veh ANKRD19P (11752326_a_at) / RFU OR2T12 /// OR2T33 /// OR2T8 (11738714_s_at) / Fold change /veh OR2T12 /// OR2T33 /// OR2T8 (11738714_s_at) / RFU VCAN (11748164_a_at) / Fold change /veh VCAN (11748164_a_at) / RFU JSRP1 (11732532_at) / Fold change /veh JSRP1 (11732532_at) / RFU KRTAP10-11 (11738290_x_at) / Fold change /veh KRTAP10-11 (11738290_x_at) / RFU MYO3A (11730013_a_at) / Fold change /veh MYO3A (11730013_a_at) / RFU EBF3 (11725865_a_at) / Fold change /veh EBF3 (11725865_a_at) / RFU CAMK2N1 (11719241_x_at) / Fold change /veh CAMK2N1 (11719241_x_at) / RFU C5orf56 (11738088_a_at) / Fold change /veh C5orf56 (11738088_a_at) / RFU OLFML3 (11715873_a_at) / Fold change /veh OLFML3 (11715873_a_at) / RFU LOC100653217 /// NTM (11731650_a_at) / Fold change /veh LOC100653217 /// NTM (11731650_a_at) / RFU MAPK11 (11762145_a_at) / Fold change /veh MAPK11 (11762145_a_at) / RFU FIZ1 (11724087_x_at) / Fold change /veh FIZ1 (11724087_x_at) / RFU OASL (11726364_x_at) / Fold change /veh OASL (11726364_x_at) / RFU SOX15 (11748057_x_at) / Fold change /veh SOX15 (11748057_x_at) / RFU CD79A (11719716_a_at) / Fold change /veh CD79A (11719716_a_at) / RFU HIST1H1D (11736915_at) / Fold change /veh HIST1H1D (11736915_at) / RFU CASKIN2 (11723855_a_at) / Fold change /veh CASKIN2 (11723855_a_at) / RFU LOC730098 (11760151_x_at) / Fold change /veh LOC730098 (11760151_x_at) / RFU OR4N2 (11742367_at) / Fold change /veh OR4N2 (11742367_at) / RFU PRRT2 (11749266_a_at) / Fold change /veh PRRT2 (11749266_a_at) / RFU SNX32 (11753110_a_at) / Fold change /veh SNX32 (11753110_a_at) / RFU CDHR5 (11726645_a_at) / Fold change /veh CDHR5 (11726645_a_at) / RFU RCAN1 (11760418_a_at) / Fold change /veh RCAN1 (11760418_a_at) / RFU FAM167A (11723789_a_at) / Fold change /veh FAM167A (11723789_a_at) / RFU FAM26E (11764081_at) / Fold change /veh FAM26E (11764081_at) / RFU ISYNA1 (11749810_s_at) / Fold change /veh ISYNA1 (11749810_s_at) / RFU ACY1 (11761880_at) / Fold change /veh ACY1 (11761880_at) / RFU 11764098_at / Fold change /veh 11764098_at / RFU SAMD14 (11745864_x_at) / Fold change /veh SAMD14 (11745864_x_at) / RFU NPB (11741838_a_at) / Fold change /veh NPB (11741838_a_at) / RFU TMPRSS6 (11731388_a_at) / Fold change /veh TMPRSS6 (11731388_a_at) / RFU KRTAP10-2 (11738614_at) / Fold change /veh KRTAP10-2 (11738614_at) / RFU ARHGAP8 /// PRR5-ARHGAP8 (11727945_x_at) / Fold change /veh ARHGAP8 /// PRR5-ARHGAP8 (11727945_x_at) / RFU KRTAP5-7 /// NADSYN1 (11734609_at) / Fold change /veh KRTAP5-7 /// NADSYN1 (11734609_at) / RFU RASL12 (11751679_a_at) / Fold change /veh RASL12 (11751679_a_at) / RFU CDKN2B (11736163_a_at) / Fold change /veh CDKN2B (11736163_a_at) / RFU PRF1 (11729649_at) / Fold change /veh PRF1 (11729649_at) / RFU, ZNF638 /// ZNF638-IT1 / Fold change vs veh, ZNF638 /// ZNF638-IT1 / RFU, PANK3 / Fold change vs veh, PANK3 / RFU, SH3YL1 / Fold change vs veh, SH3YL1 / RFU, ZEB2 / Fold change vs veh, ZEB2 / RFU, NRIP1 / Fold change vs veh, NRIP1 / RFU, PTTG1IP / Fold change vs veh, PTTG1IP / RFU, CAPN2 / Fold change vs veh, CAPN2 / RFU, MED14 / Fold change vs veh, MED14 / RFU, SNORA58 / Fold change vs veh, SNORA58 / RFU, C1orf63 / Fold change vs veh, C1orf63 / RFU, LRRFIP1 / Fold change vs veh, LRRFIP1 / RFU, NDUFAF7 / Fold change vs veh, NDUFAF7 / RFU, SLC12A2 / Fold change vs veh, SLC12A2 / RFU, IBTK / Fold change vs veh, IBTK / RFU, ESF1 / Fold change vs veh, ESF1 / Fold change vs veh, TMEM50B / RFU, TAOK1 / Fold change vs veh, TAOK1 / RFU, ACBD3 / Fold change vs veh, ACBD3 / RFU, TMA16 / Fold change vs veh, TMA16 / RFU, RWDD3 / Fold change vs veh, RWDD3 / RFU, BCAT1 / Fold change vs veh, BCAT1 / RFU, EDEM3 / Fold change vs veh, EDEM3 / RFU, TMEM33 / Fold change vs veh, TMEM33 / RFU, WDR75 / Fold change vs veh, WDR75 / RFU, AHCTF1 / Fold change vs veh, AHCTF1 / RFU, TFRC / Fold change vs veh, TFRC / RFU, ZDHHC17 / Fold change vs veh, ZDHHC17 / RFU, NOM1 / Fold change vs veh, NOM1 / RFU, ARL8B / Fold change vs veh, ARL8B / RFU, ZBTB11 / Fold change vs veh, ZBTB11 / RFU, TAMM41 / Fold change vs veh, TAMM41 / RFU, KIAA1704 /// LOC100996395 / Fold change vs veh, KIAA1704 /// LOC100996395 / RFU, ING1 / Fold change vs veh, ING1 / RFU, TRMT61B / Fold change vs veh, TRMT61B / RFU, FUBP3 / Fold change vs veh, FUBP3 / RFU, TP53 / Fold change vs veh, TP53 / RFU, TNKS2 / Fold change vs veh, TNKS2 / RFU, ZFP14 / Fold change vs veh, ZFP14 / RFU, ACTR2 / Fold change vs veh, ACTR2 / RFU, PPP3R1 / Fold change vs veh, PPP3R1 / RFU, PIK3R1 / Fold change vs veh, PIK3R1 / RFU, HNRNPA1 / Fold change vs veh, HNRNPA1 / RFU, RNF170 / Fold change vs veh, RNF170 / RFU, ZNF28 / Fold change vs veh, ZNF28 / RFU, RNGTT / Fold change vs veh, RNGTT / RFU, OGT / Fold change vs veh, OGT / RFU, BRD1 / Fold change vs veh, BRD1 / RFU, MARS / Fold change vs veh, MARS / RFU, ZNF655 / Fold change vs veh, ZNF655 / RFU, FAHD1 / Fold change vs veh, FAHD1 / RFU, BDP1 / Fold change vs veh, BDP1 / RFU, LRRCC1 / Fold change vs veh, LRRCC1 / RFU, ARID1A / Fold change vs veh, ARID1A / RFU, ZNF146 / Fold change vs veh, ZNF146 / RFU, ZNF330 / Fold change vs veh, ZNF330 / RFU, GPN3 / Fold change vs veh, GPN3 / RFU, C9orf123 / Fold change vs veh, C9orf123 / RFU, N4BP2L2 / Fold change vs veh, N4BP2L2 / RFU, ARFIP1 / Fold change vs veh, ARFIP1 / RFU, FAM179B / Fold change vs veh, FAM179B / RFU, BCL10 / Fold change vs veh, BCL10 / RFU, UHRF1BP1L / Fold change vs veh, UHRF1BP1L / RFU, BET1 / Fold change vs veh, BET1 / RFU, CNOT2 / Fold change vs veh, CNOT2 / RFU, ZNF268 / Fold change vs veh, ZNF268 / Fold change vs veh, ZNF507 / RFU, DGCR2 / Fold change vs veh, DGCR2 / RFU, WDSUB1 / Fold change vs veh, WDSUB1 / Fold change vs veh, HSP90B1 /// MIR3652 / RFU, ADSS / Fold change vs veh, ADSS / RFU, GK / Fold change vs veh, GK / RFU, ZNF148 / Fold change vs veh, ZNF148 / RFU, TAF9 / Fold change vs veh, TAF9 / RFU, SLC1A5 / Fold change vs veh, SLC1A5 / RFU, SLMO2 / Fold change vs veh, SLMO2 / RFU, ABCC4 / Fold change vs veh, ABCC4 / RFU, LOC101060439 /// RAP1B / Fold change vs veh, LOC101060439 /// RAP1B / RFU, RFX7 / Fold change vs veh, RFX7 / RFU, GTPBP10 / Fold change vs veh, GTPBP10 / RFU, CNEP1R1 / Fold change vs veh, CNEP1R1 / RFU, BIVM-ERCC5 /// ERCC5 / Fold change vs veh, BIVM-ERCC5 /// ERCC5 / RFU, ILF3 / Fold change vs veh, ILF3 / RFU 11762660_at / Fold change /veh 11762660_at / RFU VCAN (11757783_s_at) / Fold change /veh VCAN (11757783_s_at) / RFU DDX43 (11728927_at) / Fold change /veh DDX43 (11728927_at) / RFU KRT8 (11758188_x_at) / Fold change /veh KRT8 (11758188_x_at) / RFU NKD1 (11759106_at) / Fold change /veh NKD1 (11759106_at) / RFU SRD5A1 (11742802_a_at) / Fold change /veh SRD5A1 (11742802_a_at) / RFU TPSAB1 /// TPSB2 (11721975_s_at) / Fold change /veh TPSAB1 /// TPSB2 (11721975_s_at) / RFU GSTM3 (11746129_a_at) / Fold change /veh GSTM3 (11746129_a_at) / RFU IL23R (11737362_x_at) / Fold change /veh IL23R (11737362_x_at) / RFU TMEM51 (11727254_a_at) / Fold change /veh TMEM51 (11727254_a_at) / RFU PIWIL2 (11732686_x_at) / Fold change /veh PIWIL2 (11732686_x_at) / RFU ORM1 (11744905_x_at) / Fold change /veh ORM1 (11744905_x_at) / RFU CCDC152 (11743942_at) / Fold change /veh CCDC152 (11743942_at) / RFU ECM1 (11717891_a_at) / Fold change /veh ECM1 (11717891_a_at) / RFU IL23R (11748794_a_at) / Fold change /veh IL23R (11748794_a_at) / RFU TNFAIP8L3 (11732012_x_at) / Fold change /veh TNFAIP8L3 (11732012_x_at) / RFU MBOAT4 (11741988_at) / Fold change /veh MBOAT4 (11741988_at) / RFU 11764193_at / Fold change /veh 11764193_at / RFU TMEM53 (11763286_at) / Fold change /veh TMEM53 (11763286_at) / RFU MAGEB2 (11727129_at) / Fold change /veh MAGEB2 (11727129_at) / RFU TMEM200A (11744735_a_at) / Fold change /veh TMEM200A (11744735_a_at) / RFU CCDC152 (11751479_a_at) / Fold change /veh CCDC152 (11751479_a_at) / RFU FAM211A (11726209_a_at) / Fold change /veh FAM211A (11726209_a_at) / RFU RGS16 (11746705_a_at) / Fold change /veh RGS16 (11746705_a_at) / RFU VCAN (11755009_s_at) / Fold change /veh VCAN (11755009_s_at) / RFU RHOB (11743442_s_at) / Fold change /veh RHOB (11743442_s_at) / RFU RGS16 (11720943_a_at) / Fold change /veh RGS16 (11720943_a_at) / RFU RGS16 (11720944_at) / Fold change /veh RGS16 (11720944_at) / RFU, VPS4B / Fold change vs veh, VPS4B / RFU, CREB1 / Fold change vs veh, CREB1 / RFU, DNAJC13 / Fold change vs veh, DNAJC13 / RFU, GNAQ / Fold change vs veh, GNAQ / RFU, CDK5R1 / Fold change vs veh, CDK5R1 / RFU, ZRANB3 / Fold change vs veh, ZRANB3 / RFU, CUL4A / Fold change vs veh, CUL4A / RFU, CCNY / Fold change vs veh, CCNY / RFU, UFL1 / Fold change vs veh, UFL1 / RFU, COG3 / Fold change vs veh, COG3 / RFU, DIAPH2 / Fold change vs veh, DIAPH2 / RFU, SKA2 / Fold change vs veh, SKA2 / RFU, AFF3 / Fold change vs veh, AFF3 / RFU, LMF1 / Fold change vs veh, LMF1 / RFU, IPO11 / Fold change vs veh, IPO11 / RFU, DFFB / Fold change vs veh, DFFB / RFU, FOXP1 / Fold change vs veh, FOXP1 / RFU, CARD8 / Fold change vs veh, CARD8 / RFU, STRN3 / Fold change vs veh, STRN3 / RFU, ADK / Fold change vs veh, ADK / RFU, RASSF2 / Fold change vs veh, RASSF2 / RFU, WIPF1 / Fold change vs veh, WIPF1 / RFU, LARP1B / Fold change vs veh, LARP1B / RFU, RASA1 / Fold change vs veh, RASA1 / RFU, RB1 / Fold change vs veh, RB1 / RFU, PPFIA1 / Fold change vs veh, PPFIA1 / RFU, MAT2A / Fold change vs veh, MAT2A / RFU, CCT5 / Fold change vs veh, CCT5 / RFU, WDR92 / Fold change vs veh, WDR92 / RFU, CUX1 / Fold change vs veh, CUX1 / RFU, TTC7A / Fold change vs veh, TTC7A / RFU, TMEM135 / Fold change vs veh, TMEM135 / RFU, DEPTOR / Fold change vs veh, DEPTOR / RFU, CPM / Fold change vs veh, CPM / RFU, DNAJB6 / Fold change vs veh, DNAJB6 / RFU, CACNA2D3 / Fold change vs veh, CACNA2D3 / RFU, DTX4 / Fold change vs veh, DTX4 / RFU, TFCP2 / Fold change vs veh, TFCP2 / RFU, GMCL1 /// GMCL1P1 / Fold change vs veh, GMCL1 /// GMCL1P1 / RFU, AEBP2 / Fold change vs veh, AEBP2 / RFU, SNHG1 /// SNORD22 /// SNORD25 /// SNORD26 /// SNORD27 /// SNORD28 /// SNORD29 /// SNORD31 / Fold change vs veh, SNHG1 /// SNORD22 /// SNORD25 /// SNORD26 /// SNORD27 /// SNORD28 /// SNORD29 /// SNORD31 / Fold change (Aza/veh), C12orf56 (ProbeSet 11735607_a_at) / Fold change (ACY-1035/veh), C12orf56 (ProbeSet 11735607_a_at) / Fold change (Aza/veh), FGFR1OP (ProbeSet 11751329_s_at) / Fold change (ACY-1035/veh), FGFR1OP (ProbeSet 11751329_s_at) / Fold change (Aza/veh), VPS36 (ProbeSet 11739960_a_at) / Fold change (ACY-1035/veh), VPS36 (ProbeSet 11739960_a_at) / RFU SYPL1 (11715823_x_at) / Fold change /veh SYPL1 (11715823_x_at) / RFU IGFBP7 (11715501_s_at) / Fold change /veh IGFBP7 (11715501_s_at) / RFU REEP3 (11722064_at) / Fold change /veh REEP3 (11722064_at) / RFU IGLL1 (11728026_x_at) / Fold change /veh IGLL1 (11728026_x_at): dose or concentration left out as unconfirmed",
  "settings": "ProbeSet 11749645_x_at; LIST B",
  "data": [
    {"smiles": "Nc1ncn([C@@H]2O[C@H](CO)[C@@H](O)[C@H]2O)c(=O)n1", "note": "[azacitidine]", "values": [
      {"measurement": "RFU, ZNF268", "result": 156.52, "unit": "RFU"}
    ]}
  ]
}
